According to patent US20260315372A1, “INJECTABLE PHARMACEUTICAL FORMULATIONS” (priority 2023, published 2026):
Where two headings read alike, the source gives them in different places.

Legend:
[1] = dog, in vivo, sc
5-HT2A receptor = conditions: cited from earlier work
[2] = test system: 5-hydroxytryptamine-(5-HT)1A; conditions: cited from earlier work
5-HT2A = conditions: cited from earlier work
5-HT2C = conditions: cited from earlier work
[3] = test system: serotonin transporter (SERT); conditions: cited from earlier work
[4] = test system: trace amine-associated receptors (TAARs); conditions: cited from earlier work
sigma-1 receptor = conditions: cited from earlier work
[5] = in vivo; cited from earlier work
in vivo [6] = conditions: dog, sc, 0.5 mg/kg; for Vd/F: Vz/F (mean)
[7] = cited from earlier work
in vivo [8] = experiment: in vivo; design: species or system male Beagle dogs; conditions: dog
Source text: A: Proof of Concept—Pharmacokinetics (PK) of DMT-d10 in Male Beagle Dogs Following Subcutaneous Administration in Saline or Sodium Hyaluronate
The objective of this study was to determine if a 1% (w/v) sodium hyaluronate formulation could modify the SC release of DMT-d10 compared to 0.9% (w/v) saline formulation.
Animals. Three, non-naïve, male Beagle dogs aged ca 2-5 years and weighing 10-15 kg at dosing were supplied by Charles River for use on this study and were bred for use in scientific procedures. The animal work in this study was conducted under the UK Home Office Project License No. PPL PP9376768, Pharmacokinetics of Pharmaceuticals. This was a cross-over design study to reduce the number of dogs in use and as well as decrease interindividual variability.
Housing. Animals were uniquely identified by microchip and tattoo in this study. During pre-trial and on-study periods, the animals were group housed in caging appropriate to the species. The animals were housed singly for up to 4 h per day and during this time had access to their daily ration of diet.
IPS 5007 diet was provided as a daily ration throughout the study. A 350 g ration of feed per dog was provided once daily, except during designated procedures. On the morning of dosing (pre-dose), the animals were deprived from their daily food allowance until 2 h post dose. Mains quality tap water was available ad libitum. Details of diet and water are maintained at the test facility.
(§1) Prior to acceptance for use on study, animals were subject to an examination and the results found to be satisfactory. All animals were weighed prior to each dose administration and the bodyweights recorded. Animals were checked regularly throughout the duration of the study. Any clinical signs were closely monitored and recorded.
Test Items. DMT-d10 fumarate was formulated as a solution in 0.9% (w/v) saline, pH 5.5-6 (control) or in 1% (w/v, nominal) sodium hyaluronate in water for injection (WFI) (Formulation 28) at a free base concentration of 0.4 mg/mL (nominal) for SC injection. Each test item was prepared on the morning of dose administration and stored at ambient temperature, protected from light, until dosing.
Control (0.9% w/v saline): On the day prior to dosing, DMT-d10 fumarate was removed from storage (frozen, in a freezer set to maintain ≤−20° C., protected from light) and allowed to equilibrate to room temperature. Using a precision analytical balance, 9.7 mg of DMT-d10 fumarate was weighed into a 20 mL headspace vial which was pre-calibrated to a final volume of 15 mL with a magnetic stir bar inside. The weighed API was returned to storage. On the morning of dosing, the weighed API was removed from storage and allowed to equilibrate to room temperature. 13.55 mL of vehicle (0.9% w/v saline) was added to the vial (equivalent to 90% of final volume) and set to magnetically stir for ca 35 minutes. Using a calibrated pH meter, the solution pH was measured. […] The solution was made to final volume of 15 mL, using the pre-calibrated line, with 0.9% w/v saline. The final pH was recorded as 5.53. The solution was then filtered using a […] PVDF syringe filter in the laminar air flow cabinet (LAFC). The visual appearance of the solution was recorded as a clear, colorless, homogenous solution. […] The control solution was protected from light at all times.
Formulation 28: On the morning of dosing, DMT-d10 fumarate was removed from storage (frozen, in a freezer set to maintain ≤−20° C., protected from light) and allowed to equilibrate to room temperature. Using a precision analytical balance, 11.02 mg of DMT-d10 fumarate was weighed into a 20 mL headspace vial containing a magnetic stir bar. 3.5 mL of WFI was added to the vial and set to stir, making a stock solution with a free base concentration of 2 mg/mL (nominal) DMT-d10. Once homogenous, 2 mL of the stock solution was dispensed into a vial containing 8 mL of 1.25% (w/v, nominal) sodium hyaluronate and vortex mixed until homogenous. […]

[9] = design: species or system male Beagle dogs; conditions: dog, in vivo, sc, 1 mg/kg
Protocol: D: Dose Concentration and Dose Volume—Pharmacokinetics of DMT-d10 in Male Beagle Dogs Following Subcutaneous Administration at 1 mg/kg Formulated in Hyaluronic Acid Concentrations at Higher Dosing Solution Concentrations and Lower Dosing Volume
The objective of this study was to determine the effect of increasing the dosing solution concentration of DMT-d10 and decreasing the dose volume on the SC release of DMT-d10 into the systemic circulation. This study was conducted using the same CRO, housing, and materials as described above in part A. All conditions described in part A pertain to this study with the exceptions noted below.
Test Items. […]
[…]. Once homogeneous, the density was measured to be 1.000 g/cm^3. […] The visual appearance was recorded as a clear/yellowish homogenous solution at this stage. The pH was measured using a calibrated pH meter and recorded to be 3.24. […] The density was measured to be 1.012 g/cm^3. […]
[…]. The density of the resultant 0.8% (w/v, nominal) sodium hyaluronate solution was recorded to be 1.002 g/cm^3. […] The final visual appearance of the formulation was recorded as a clear, colorless, homogenous solution.
(§2) Subcutaneous injections. […] Appropriate volumes of dose were calculated per each animal based on real animal bodyweights and a target dose volume of 0.05 mL/kg or 0.25 mL/kg. […]

[10] = design: species or system male Beagle dogs; conditions: dog, in vivo, sc
Protocol: as §1
Subcutaneous injections. The target dose was 0.1 mg/kg, free base at a dose concentration of 0.4 mg/mL. Appropriate volumes of dose were calculated per each animal based on real animal bodyweights and a target dose volume of 0.25 mL/kg. The volumes were pulled into plastic Troge 2.5 mL syringes. Animals were identified by microchip and tattoo. […]
Subcutaneous injections. […] Appropriate volumes of dose were calculated per each animal based on real animal bodyweights and a target dose volume of 0.25 mL/kg. […]
as §2
Subcutaneous injections. DMT+DMT-d10 were co-dosed (via Formulation 35) at 0.5 mg/kg/analyte, total dose of 1.0 mg/kg (free base), each at a dose concentration of 10 mg/mL (nominal), total dose concentration of 20 mg/mL (nominal) and a dose volume of 0.05 mL/kg calculated per each animal based on real animal bodyweights. […]

For `CN(C)CCc1c[nH]c2ccccc12` [DMT, 2-(1H-indol-3-yl)-N,N-dimethylethan-1-amine], the “plasma concentrations quantifiable to” value [1] is given as no more than 2 h, the “agonism at the 5-HT2A receptor” value (5-HT2A receptor) is given as “potent agonist” and the “binding to 5-HT1A” value [2] is given as “binds with affinity”. For the same compound, the “binding to 5-HT2A” value (5-HT2A) was “binds with affinity”, the “binding to 5-HT2C” value (5-HT2C) was “binds with affinity” and the “binding to SERT” value [3] was “binds with affinity”. The “binding to TAARs” value [4] was “binds to other receptors”, the “binding to sigma-1 receptor” value (sigma-1 receptor) was “binds to other receptors” and the “therapeutically relevant psychedelic dose” value [5] was no less than 70 mg. It also gave an AUC(0-inf) (in vivo [6]) of 48.7 ng·h/mL, a CL/F (in vivo [6]) of 173 mL/min/kg and a Cmax (in vivo [6]) of 58.1 ng/mL. For the same compound, the MRT inf (in vivo [6]) was 52 min, the Tmax (in vivo [6]) was 30 min and the half-life (in vivo [6]) was 32 min. For the same compound, the Vd/F (in vivo [6]) was 7.59 L/kg and the oral activity ([7]; in vivo, po) was “not orally active”.

In the case of `[2H]C([2H])([2H])N(C([2H])([2H])[2H])C([2H])([2H])C([2H])([2H])c1c[nH]c2ccccc12` [DMT-d10, 2-(1H-indol-3-yl)-N,N-bis(methyl-d3)ethan-1-amine-1,1,2,2-d4], the “dose proportionality of Cmax and AUCinf” value (in vivo [8]) is reported as “increased in a dose proportional manner”, the “plasma DMT-d10 concentrations quantifiable up to” value (in vivo [8]) is reported as “up to 4 hours” and the MRT inf (in vivo [8]; sc) is reported as roughly 90 min. For the same compound, the Tmax (in vivo [8]; sc) was 30 to 45 min, the half-life (in vivo [8]; sc) was roughly 54 min and the “plasma DMT-d10 concentrations quantifiable up to” value (in vivo [8]; sc) was “up to 4 hours”. For the same compound, the “plasma DMT-d10 concentrations quantifiable up to” value [9] was “up to 4 hours”, the “adverse reactions to the administration” value [10] was “No adverse reactions” and the clinical signs post-dose [10] was “Mild, transient clinical signs”. For the same compound, the “decrease of apparent clearance (Cl/F) by deuteration” value [1] was 2.2 ×, the “decrease of apparent volume of distribution (Vz/F) by deuteration” value [1] was 1.6 × and the “increase of AUCinf by deuteration” value [1] was 2.2 ×. The “increase of Cmax by deuteration” value [1] was 1.3 ×, the “increase of MRTinf by deuteration” value [1] was 1.4 × and the “increase of t1/2 by deuteration” value [1] was 1.4 ×. The “plasma concentrations quantifiable to” value [1] was no more than 4 h, the “Vz/F (mean)” value ([1]; 0.5 mg/kg) was 4.72 L/kg and the AUC(0-inf) (in vivo [6]) was 109 ng·h/mL. It also gave a CL/F (in vivo [6]) of 77.5 mL/min/kg, a Cmax (in vivo [6]) of 75.6 ng/mL and an MRT inf (in vivo [6]) of 73.8 min. It also gave a Tmax (in vivo [6]) of 30 min, a half-life (in vivo [6]) of 43.3 min and a Vd/F (in vivo [6]) of 4.73 L/kg.

In the case of `COc1ccc2[nH]cc(CCN(C)C)c2c1` [Formulation 5-MeO-DMT, 5-methoxy-N,N-dimethyltryptamine], the oral bioavailability ([7]; oral) is listed as “lacks oral bioavailability”.
